{
  "source": "paper PMC3583241",
  "about": "“Hit identification of IKKβ natural product inhibitor” (BMC Pharmacology & Toxicology, 2013)",
  "target": "T1, IKKβ (Homo sapiens, UniProt O14920)",
  "T1 construct": "gene IKBKB; human recombinant IKKβ",
  "T1 sequence (O14920 1-756)": "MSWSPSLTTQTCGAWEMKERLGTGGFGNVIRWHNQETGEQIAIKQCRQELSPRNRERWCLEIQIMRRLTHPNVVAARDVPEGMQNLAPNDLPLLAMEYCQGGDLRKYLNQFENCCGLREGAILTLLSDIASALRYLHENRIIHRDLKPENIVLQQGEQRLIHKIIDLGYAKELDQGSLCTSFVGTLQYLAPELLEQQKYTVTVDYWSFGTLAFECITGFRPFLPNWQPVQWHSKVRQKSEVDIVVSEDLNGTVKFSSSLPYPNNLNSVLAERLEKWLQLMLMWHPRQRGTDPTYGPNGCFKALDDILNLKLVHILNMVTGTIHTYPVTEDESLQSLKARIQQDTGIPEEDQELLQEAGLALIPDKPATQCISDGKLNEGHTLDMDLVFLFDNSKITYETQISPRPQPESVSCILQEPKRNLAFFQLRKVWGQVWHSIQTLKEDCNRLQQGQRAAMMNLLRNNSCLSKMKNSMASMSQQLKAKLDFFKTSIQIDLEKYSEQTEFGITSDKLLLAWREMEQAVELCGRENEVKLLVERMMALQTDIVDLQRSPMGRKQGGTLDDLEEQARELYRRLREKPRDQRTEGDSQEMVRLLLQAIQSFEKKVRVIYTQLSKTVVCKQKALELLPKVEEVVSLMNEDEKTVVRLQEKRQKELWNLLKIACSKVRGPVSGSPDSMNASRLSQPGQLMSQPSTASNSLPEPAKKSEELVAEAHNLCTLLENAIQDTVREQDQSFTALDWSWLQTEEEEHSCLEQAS",
  "experiment": "ELISA-based K-LISA IKKβ kinase assay with GST-IκBα substrate",
  "format": "biochemical",
  "data": [
    {"smiles": "O=C(O)c1ccccc1C(=O)NCCC(c1ccccc1)c1ccco1", "note": "(stereo not shown) [compound 1, benzoic acid derivative (1)]", "values": [
      {"measurement": "IC50", "result": "~50", "unit": "µM"}
    ]}
  ]
}
